According to patent US20240391936A1, “TETRAHYDROTHIENO PYRIDINE DERIVATIVES AS DDRS INHIBITORS” (CHIESI FARMACEUTICI S.P.A., priority 2021, published 2024):

What was measured:
DDR1 [1] = biological target: T1, DDR1 (Homo sapiens, UniProt Q08345); experiment: DDR1 binding assay (LanthaScreen Europium Kinase Binding assay); parameters: purchased Carna Biosciences; settings: binding assay, 5 nM DDR1, 20 nM Kinase Tracer 178; Ki from IC50 by Cheng-Prusoff; read-out: Ki DDR1
Protocol: (§1) DDR1 and DDR2 binding assays were performed using Life Technologies LanthaScreen™ Europium Kinase Binding assay. The compounds were incubated with 5 nM DDR1 (Carna Biosciences) or 5 nM DDR2 (Life Technologies) for 1 hour at room temperature in white 384-well OptiPlate (PerkinElmer), containing 20 nM or 10 nM Kinase Tracer 178 respectively and 2 nM Europium labelled anti-GST antibody (Life Technologies) in assay buffer (50 mM HEPES pH 7.5, 10 mM MgCl2, 1 mM EGTA and 0.01% BRIJ35).
(§2) The ratio of fluorescence emission 665 nm/615 nm after excitation at 340 nm was obtained using the Tecan Spark 20M plate reader. IC50 values were determined in GraphPad Prism 7.0 software, using 4 parameter model: log(inhibitor) vs. response. IC50 values were converted in Ki using the Cheng-Prusoff equation

DDR2 = biological target: T2, DDR2 (Homo sapiens, UniProt Q16832); experiment: DDR2 binding assay (LanthaScreen Europium Kinase Binding assay); parameters: purchased Life Technologies; settings: binding assay, 5 nM DDR2, 10 nM Kinase Tracer 178; Ki from IC50 by Cheng-Prusoff; read-out: Ki DDR2
T2 sequence (Q16832 22-855): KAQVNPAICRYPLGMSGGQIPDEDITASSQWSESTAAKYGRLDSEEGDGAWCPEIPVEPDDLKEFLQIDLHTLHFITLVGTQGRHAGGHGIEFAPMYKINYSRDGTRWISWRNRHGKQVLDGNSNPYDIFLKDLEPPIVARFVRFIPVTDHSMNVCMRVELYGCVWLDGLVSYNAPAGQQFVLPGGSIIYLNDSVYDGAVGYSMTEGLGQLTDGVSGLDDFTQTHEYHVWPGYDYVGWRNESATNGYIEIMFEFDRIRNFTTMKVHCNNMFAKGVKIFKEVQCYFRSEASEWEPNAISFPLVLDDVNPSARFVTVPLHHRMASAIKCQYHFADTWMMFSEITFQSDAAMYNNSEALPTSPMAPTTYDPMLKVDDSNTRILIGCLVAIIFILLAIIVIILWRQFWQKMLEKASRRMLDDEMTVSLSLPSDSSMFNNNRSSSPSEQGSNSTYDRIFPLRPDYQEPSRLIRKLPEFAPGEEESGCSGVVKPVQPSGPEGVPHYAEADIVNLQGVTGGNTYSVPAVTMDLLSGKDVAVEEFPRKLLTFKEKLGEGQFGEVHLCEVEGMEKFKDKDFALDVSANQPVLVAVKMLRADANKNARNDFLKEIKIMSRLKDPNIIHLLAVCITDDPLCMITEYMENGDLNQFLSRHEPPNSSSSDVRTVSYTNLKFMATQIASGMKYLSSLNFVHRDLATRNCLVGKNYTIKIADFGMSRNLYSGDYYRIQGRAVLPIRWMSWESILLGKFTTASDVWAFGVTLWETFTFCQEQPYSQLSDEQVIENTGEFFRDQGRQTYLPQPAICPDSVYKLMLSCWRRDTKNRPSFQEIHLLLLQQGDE
Protocol: as §1, §2

DDR1 [2] = biological target: T1, DDR1; experiment: DDR1 cell based assay (PathHunter U2OS DDR1 assay); parameters: host or cells: U2OS-DDR1 (PathHunter); settings: U2OS-DDR1 cells, bovine Type II Collagen 20 μg/ml
Protocol: The inhibition of DDR1 receptor activation by compounds was evaluated by PathHunter® U2OS DDR1 assay (Eurofins DiscoverX), according to the manufacturer's instructions. Briefly, U2OS-DDR1 cells were seeded in white 384-well plates at a density of 5000 cells/well and incubated for 2 hours at 37° C. and 5% CO2. Cells were then treated with compounds at different concentrations and incubated for 30 minutes, before stimulation with bovine Type II Collagen 20 μg/ml and incubation overnight at 37° C. and 5% CO2. PathHunter Detection Reagents were prepared according to the protocol provided by DiscoverX and 20 μl/well of this mix were added to each well. After incubating the plates for 1 hour at room temperature in the dark, luminescence signal was acquired with a plate reader. Raw data were normalized to vehicle control (0% for normalization) and positive control (100% for normalization; cells treated with 20 μg/ml collagen II) and IC50 parameters were calculated in GraphPad Prism 8.0 software, using sigmoidal dose-response curve fitting with variable slope.

T1 sequence (Q08345 19-913): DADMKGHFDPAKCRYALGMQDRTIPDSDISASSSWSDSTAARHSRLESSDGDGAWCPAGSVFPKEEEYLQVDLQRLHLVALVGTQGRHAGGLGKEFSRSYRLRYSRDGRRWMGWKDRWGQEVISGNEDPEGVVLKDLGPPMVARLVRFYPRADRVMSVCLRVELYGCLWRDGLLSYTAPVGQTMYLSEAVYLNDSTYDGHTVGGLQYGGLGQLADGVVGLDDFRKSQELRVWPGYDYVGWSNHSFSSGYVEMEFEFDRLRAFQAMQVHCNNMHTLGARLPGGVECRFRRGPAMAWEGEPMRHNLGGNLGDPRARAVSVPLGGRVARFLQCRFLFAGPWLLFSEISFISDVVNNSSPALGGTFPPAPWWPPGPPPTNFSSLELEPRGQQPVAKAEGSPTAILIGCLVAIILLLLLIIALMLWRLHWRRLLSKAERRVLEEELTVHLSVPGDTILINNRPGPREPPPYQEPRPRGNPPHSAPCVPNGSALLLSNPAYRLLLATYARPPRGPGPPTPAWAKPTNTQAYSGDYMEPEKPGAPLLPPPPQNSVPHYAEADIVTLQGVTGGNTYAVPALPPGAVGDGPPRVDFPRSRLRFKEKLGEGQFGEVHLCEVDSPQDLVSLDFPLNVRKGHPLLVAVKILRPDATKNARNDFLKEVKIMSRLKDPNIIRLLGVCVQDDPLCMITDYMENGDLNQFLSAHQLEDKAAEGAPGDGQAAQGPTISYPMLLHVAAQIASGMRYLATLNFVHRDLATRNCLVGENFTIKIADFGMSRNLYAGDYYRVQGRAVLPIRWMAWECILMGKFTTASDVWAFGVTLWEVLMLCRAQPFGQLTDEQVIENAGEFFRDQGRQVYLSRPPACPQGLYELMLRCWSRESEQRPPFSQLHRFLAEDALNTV

CN1CCN(c2cc(NC(=O)c3csc4c3CCN(C(=O)c3cnn5ccncc35)C4)cc(C(F)(F)F)c2)CC1 [Example 178, N-(3-(4-methylpiperazin-1-yl)-5-(trifluoromethyl)phenyl)-6-(pyrazolo[1,5-a]pyrazine-3-carbonyl)-4,5,6,7-tetrahydrothieno[2,3-c]pyridine-3-carboxamide] was tested. Which Ki (DDR1 [1]) did it give?
Its Ki is under 25 nM.

And the Ki (DDR2)?
The Ki was under 25 nM.

What about the IC50 (DDR1 [2]) of the same compound?
Its IC50 is 50 to 80 nM.

For CC(C)(C)c1cc(NC(=O)c2csc3c2CCN(C(=O)c2cnc4ccccn24)C3)n(-c2ccccc2)n1 [Example 6, N-(3-(tert-butyl)-1-phenyl-1H-pyrazol-5-yl)-6-(imidazo[1,2-a]pyridine-3-carbonyl)-4,5,6,7-tetrahydrothieno[2,3-c]pyridine-3-carboxamide], which Ki (DDR1 [1]) is on record?
Its Ki is under 25 nM.

And the Ki (DDR2)?
The Ki was under 25 nM.

What about the IC50 (DDR1 [2]) of the same compound?
Its IC50 is 25 to 50 nM.

For CN(CCO)Cc1cc(NC(=O)c2csc3c2CCN(C(=O)c2cnc4ccccn24)C3)cc(C(F)(F)F)c1 [Example 57, N-(3-(((2-hydroxyethyl)(methyl)amino)methyl)-5-(trifluoromethyl)phenyl)-6-(imidazo[1,2-a]pyridine-3-carbonyl)-4,5,6,7-tetrahydrothieno[2,3-c]pyridine-3-carboxamide], which Ki (DDR1 [1]) is on record?
The Ki was under 25 nM.

And the Ki (DDR2)?
Its Ki is under 25 nM.

And the IC50 (DDR1 [2])?
Its IC50 is under 25 nM.

Which Ki (DDR1 [1]) does the source give for O=C(Nc1ccnc(C(F)(F)F)c1)c1csc2c1CCN(C(=O)c1cnc3ccccn13)C2 [Example 17, 6-(imidazo[1,2-a]pyridine-3-carbonyl)-N-(2-(trifluoromethyl)pyridin-4-yl)-4,5,6,7-tetrahydrothieno[2,3-c]pyridine-3-carboxamide] here?
The Ki was under 25 nM.

What about the Ki (DDR2) of the same compound?
The Ki was under 25 nM.

And the IC50 (DDR1 [2])?
The IC50 was 25 to 50 nM.

Which results are given for CN(C)Cc1ccc(NC(=O)c2csc3c2CCN(C(=O)c2cnc4ccccn24)C3)cc1C(F)(F)F [Example 27]?
Ki (DDR1 [1]): < 25 nM; Ki (DDR2): < 25 nM; IC50 (DDR1 [2]): 25 to 50 nM

What does the source list for O=C(Nc1cc(CN2CCC2)cc(C(F)(F)F)c1)c1csc2c1CCN(C(=O)c1cnc3ccccn13)C2 [Example 52, N-(3-(azetidin-1-ylmethyl)-5-(trifluoromethyl)phenyl)-6-(imidazo[1,2-a]pyridine-3-carbonyl)-4,5,6,7-tetrahydrothieno[2,3-c]pyridine-3-carboxamide]?
Ki (DDR1 [1]): < 25 nM; Ki (DDR2): < 25 nM; IC50 (DDR1 [2]): < 25 nM

Which results are given for O=C(Nc1cc(CN2CCCCC2)cc(C(F)(F)F)c1)c1csc2c1CCN(C(=O)c1cnc3ccccn13)C2 [Example 60, 6-(imidazo[1,2-a]pyridine-3-carbonyl)-N-(3-(piperidin-1-ylmethyl)-5-(trifluoromethyl)phenyl)-4,5,6,7-tetrahydrothieno[2,3-c]pyridine-3-carboxamide]?
Ki (DDR1 [1]): < 25 nM; Ki (DDR2): < 25 nM; IC50 (DDR1 [2]): 50 to 80 nM

What does the source list for O=C(Nc1cncc(C(F)(F)F)c1)c1csc2c1CCN(C(=O)c1cnc3n1CCOC3)C2 [Example 110, 6-(5,6-dihydro-8H-imidazo[2,1-c][1,4]oxazine-3-carbonyl)-N-(5-(trifluoromethyl)pyridin-3-yl)-4,5,6,7-tetrahydrothieno[2,3-c]pyridine-3-carboxamide]?
Ki (DDR1 [1]): < 25 nM; Ki (DDR2): < 25 nM; IC50 (DDR1 [2]): 25 to 50 nM

For O=C(Nc1ccc(CN2CCCC2)c(C(F)(F)F)c1)c1csc2c1CCN(C(=O)c1cnc3ccccn13)C2 [Example 22, 6-(imidazo[1,2-a]pyridine-3-carbonyl)-N-(4-(pyrrolidin-1-ylmethyl)-3-(trifluoromethyl)phenyl)-4,5,6,7-tetrahydrothieno[2,3-c]pyridine-3-carboxamide], which Ki (DDR1 [1]) is on record?
The Ki was under 25 nM.

And the Ki (DDR2)?
The Ki was under 25 nM.

And the IC50 (DDR1 [2])?
The IC50 was 50 to 80 nM.

Which Ki (DDR1 [1]) does the source give for COc1ccn2ncc(C(=O)N3CCc4c(C(=O)Nc5cncc(C(F)(F)F)c5)csc4C3)c2c1 [Example 140, 6-(5-methoxypyrazolo[1,5-a]pyridine-3-carbonyl)-N-(5-(trifluoromethyl)pyridin-3-yl)-4,5,6,7-tetrahydrothieno[2,3-c]pyridine-3-carboxamide] here?
Its Ki is under 25 nM.

What about the Ki (DDR2) of the same compound?
The Ki was under 25 nM.

What about the IC50 (DDR1 [2]) of the same compound?
Its IC50 is under 25 nM.
